Measurements taken from patent publication EP1038880B1, “Androstanes and pregnanes for allosteric modulation of GABA receptor” (priority 1994, dated 1995).

Experiments:
[1] = tested on: Bovine Uteral Progesterone Receptors; test: Inhibition of 3H-progesterone binding, uterus cytosol; conditions: competitor 10^-6M; 3H-progesterone 0.15 nM
In short: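 Rat uterus cytosol was incubated with 0.15 nM ^3H-progesterone plus test compounds. Values are percent inhibition of specific binding versus a compound-free control incubation.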

[2] = target: T1, Glucocorticoid Receptors (Rattus norvegicus, UniProt P06536); test: Inhibition of 3H-dexamethasone binding, brain cytosol; parameters: species or system rats; dose or concentration left out as unconfirmed; conditions: read-out: % of Inhibition
T1 construct: from tissue; host or cells: rat brain cytosol
T1 sequence (P06536 1-795): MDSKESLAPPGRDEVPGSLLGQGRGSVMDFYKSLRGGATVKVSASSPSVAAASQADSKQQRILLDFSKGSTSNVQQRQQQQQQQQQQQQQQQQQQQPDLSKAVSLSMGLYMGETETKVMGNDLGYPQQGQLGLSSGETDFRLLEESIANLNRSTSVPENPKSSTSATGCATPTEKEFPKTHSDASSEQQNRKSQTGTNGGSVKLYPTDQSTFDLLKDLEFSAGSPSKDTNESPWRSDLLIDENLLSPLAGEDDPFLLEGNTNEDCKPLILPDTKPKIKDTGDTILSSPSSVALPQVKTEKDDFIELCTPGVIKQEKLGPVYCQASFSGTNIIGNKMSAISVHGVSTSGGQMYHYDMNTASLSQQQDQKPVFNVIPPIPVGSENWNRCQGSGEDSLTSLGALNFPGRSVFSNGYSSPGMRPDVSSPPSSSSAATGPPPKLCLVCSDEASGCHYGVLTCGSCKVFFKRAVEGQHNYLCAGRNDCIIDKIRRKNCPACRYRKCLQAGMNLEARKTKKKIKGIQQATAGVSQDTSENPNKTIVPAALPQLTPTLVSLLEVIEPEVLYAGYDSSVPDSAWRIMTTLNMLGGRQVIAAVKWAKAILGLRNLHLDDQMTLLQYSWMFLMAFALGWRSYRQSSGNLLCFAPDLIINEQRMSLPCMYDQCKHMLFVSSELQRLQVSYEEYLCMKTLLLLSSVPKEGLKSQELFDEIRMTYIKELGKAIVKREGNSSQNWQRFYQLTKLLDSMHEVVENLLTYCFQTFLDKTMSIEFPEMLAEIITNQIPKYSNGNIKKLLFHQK
Experimental: Various hormonal activities of representative neuroactive steroids were further studied through testing their potential estrogenic, mineralocorticoid and glucocorticoid activities. These activities were analyzed by monitoring the ability of the compounds to inhibit binding of the steroid hormones to their respective hormone receptors.
For Table 4, brain cytosol fractions were prepared as for Table 3, and the compounds were incubated with 3 nM of ^3H-dexamethasone (the specific ligand for the glucocorticoid receptor).

[3] = tested on: metrazol induced convulsions; test: animal or person; assay type: in vivo, mice; conditions: Mus musculus; metrazol 85 mg/kg s.c., steroids i.p., mice
[4] = tested on: tonic seizure; test: Maximal electroshock test; assay type: in vivo; conditions: Mus musculus, ip, steroids i.p., mice
Experimental: (§1) The anticonvulsant tests are similar to that described above. […] The number of animals with tonic and/or clonic convulsions was recorded. In the maximal electroshock test, 50 mA of current at 60 Hz was delivered through corneal electrodes for 200 msec to induce tonic seizure. The ability of compounds to abolish the tonic component was defined as the endpoint. General CNS depression potential was determined by a rotorod test 10 minutes after the injection of compounds where the number of mice staying on a rotating (6 rpm) rod for 1 minute in one of the three trials was determined. […] Table 7. Anticonvulsant Activity of Exemplified Neuroactive Steroids and those of Selected Clinically Useful Anticonvulsants in Mice

[5] = tested on: (+)bicuculline; test: Anticonvulsant test against (+)bicuculline; assay type: in vivo, mice; conditions: Mus musculus, read-out: ED50 BIC
Experimental: as §1

[6] = tested on: picrotoxin; test: Anticonvulsant test against picrotoxin; assay type: in vivo, mice; conditions: Mus musculus, read-out: ED50 PICRO
Experimental: as §1

[7] = tested on: strychnine; test: Anticonvulsant test against strychnine; assay type: in vivo, mice; conditions: Mus musculus, read-out: ED50 STR
Experimental: as §1

For C[C@]12CC[C@@H](O)C[C@@H]1CC[C@@H]1[C@@H]2CC[C@]2(C)[C@@H](C(=O)CO)CC[C@@H]12 [3α,21-dihydroxy-5α-pregnan-20-one], the “% of Inhibition” value [1] was 13%, the inhibition [2] was 29.5% and the ED50 [3] was 8.1 mg/kg. For the same compound, the ED50 [4] was 26.7 mg/kg, the ED50 [5] was 17.8 mg/kg and the ED50 [6] was 5.6 mg/kg. It also gave an ED50 [7] of over 300 mg/kg.
For CC(=O)[C@H]1CC[C@H]2[C@@H]3CC[C@H]4C[C@H](O)CC[C@]4(C)[C@H]3CC[C@]12C [3α-Hydroxy-5α-pregnan-20-one, 3α-hydroxy-5α-pregnan-20-one], the “% of Inhibition” value [1] was 14%, the inhibition [2] was 8.7% and the ED50 [3] was 4.9 mg/kg. It also gave an ED50 [4] of 28.6 mg/kg, an ED50 [5] of 12.3 mg/kg and an ED50 [6] of 10.2 mg/kg. The ED50 [7] was over 300 mg/kg.
